Experimental data: ChEMBL document CHEMBL3991601, “The target landscape of clinical kinase drugs” (Science, 2017)
Where a name gives a salt, the structure may show the parent alone. The source made the active and inactive calls. Cut-off read from the data, not from the text of the source, for most assays here: actives have a measured Kd and inactives only a lower limit.

Key:
[1] = target: T1, Serine/threonine-protein kinase LATS1 (Homo sapiens, UniProt O95835)
T1 sequence (O95835 whole entry): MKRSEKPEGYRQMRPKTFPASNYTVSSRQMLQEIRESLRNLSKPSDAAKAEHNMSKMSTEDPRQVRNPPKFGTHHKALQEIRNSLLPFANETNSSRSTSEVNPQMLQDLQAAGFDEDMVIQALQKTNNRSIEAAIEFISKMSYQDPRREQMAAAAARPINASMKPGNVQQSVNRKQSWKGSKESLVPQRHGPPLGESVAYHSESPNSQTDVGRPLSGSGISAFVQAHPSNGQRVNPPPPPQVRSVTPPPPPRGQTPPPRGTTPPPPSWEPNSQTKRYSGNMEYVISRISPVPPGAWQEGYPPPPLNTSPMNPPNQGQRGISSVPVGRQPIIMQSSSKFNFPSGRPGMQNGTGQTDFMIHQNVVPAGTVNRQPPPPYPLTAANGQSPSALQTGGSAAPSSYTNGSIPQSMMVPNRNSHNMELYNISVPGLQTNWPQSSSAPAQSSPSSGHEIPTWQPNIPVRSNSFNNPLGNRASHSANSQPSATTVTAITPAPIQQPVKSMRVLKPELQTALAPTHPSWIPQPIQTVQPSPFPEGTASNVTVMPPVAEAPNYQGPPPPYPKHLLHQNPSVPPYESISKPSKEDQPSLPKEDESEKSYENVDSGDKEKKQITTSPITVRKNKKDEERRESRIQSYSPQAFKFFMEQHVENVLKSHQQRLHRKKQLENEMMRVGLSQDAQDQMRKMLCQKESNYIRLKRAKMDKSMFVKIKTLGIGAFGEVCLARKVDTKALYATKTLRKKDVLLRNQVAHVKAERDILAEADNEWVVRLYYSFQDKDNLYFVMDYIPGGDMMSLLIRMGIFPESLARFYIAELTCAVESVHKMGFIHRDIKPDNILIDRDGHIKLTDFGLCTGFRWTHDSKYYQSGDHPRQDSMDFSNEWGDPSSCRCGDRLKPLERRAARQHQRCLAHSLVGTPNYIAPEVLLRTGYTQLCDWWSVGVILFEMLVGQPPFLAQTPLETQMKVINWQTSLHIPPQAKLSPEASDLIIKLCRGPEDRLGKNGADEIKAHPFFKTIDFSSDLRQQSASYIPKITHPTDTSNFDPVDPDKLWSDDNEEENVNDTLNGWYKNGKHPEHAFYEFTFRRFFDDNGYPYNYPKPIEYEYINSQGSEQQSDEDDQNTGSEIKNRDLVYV

[2] = target: U5 small nuclear ribonucleoprotein 200 kDa helicase (Homo sapiens, UniProt O75643)
[3] = target: Proto-oncogene tyrosine-protein kinase receptor Ret (Homo sapiens, UniProt P07949)
Chain of Proto-oncogene tyrosine-protein kinase receptor Ret (P07949 whole entry): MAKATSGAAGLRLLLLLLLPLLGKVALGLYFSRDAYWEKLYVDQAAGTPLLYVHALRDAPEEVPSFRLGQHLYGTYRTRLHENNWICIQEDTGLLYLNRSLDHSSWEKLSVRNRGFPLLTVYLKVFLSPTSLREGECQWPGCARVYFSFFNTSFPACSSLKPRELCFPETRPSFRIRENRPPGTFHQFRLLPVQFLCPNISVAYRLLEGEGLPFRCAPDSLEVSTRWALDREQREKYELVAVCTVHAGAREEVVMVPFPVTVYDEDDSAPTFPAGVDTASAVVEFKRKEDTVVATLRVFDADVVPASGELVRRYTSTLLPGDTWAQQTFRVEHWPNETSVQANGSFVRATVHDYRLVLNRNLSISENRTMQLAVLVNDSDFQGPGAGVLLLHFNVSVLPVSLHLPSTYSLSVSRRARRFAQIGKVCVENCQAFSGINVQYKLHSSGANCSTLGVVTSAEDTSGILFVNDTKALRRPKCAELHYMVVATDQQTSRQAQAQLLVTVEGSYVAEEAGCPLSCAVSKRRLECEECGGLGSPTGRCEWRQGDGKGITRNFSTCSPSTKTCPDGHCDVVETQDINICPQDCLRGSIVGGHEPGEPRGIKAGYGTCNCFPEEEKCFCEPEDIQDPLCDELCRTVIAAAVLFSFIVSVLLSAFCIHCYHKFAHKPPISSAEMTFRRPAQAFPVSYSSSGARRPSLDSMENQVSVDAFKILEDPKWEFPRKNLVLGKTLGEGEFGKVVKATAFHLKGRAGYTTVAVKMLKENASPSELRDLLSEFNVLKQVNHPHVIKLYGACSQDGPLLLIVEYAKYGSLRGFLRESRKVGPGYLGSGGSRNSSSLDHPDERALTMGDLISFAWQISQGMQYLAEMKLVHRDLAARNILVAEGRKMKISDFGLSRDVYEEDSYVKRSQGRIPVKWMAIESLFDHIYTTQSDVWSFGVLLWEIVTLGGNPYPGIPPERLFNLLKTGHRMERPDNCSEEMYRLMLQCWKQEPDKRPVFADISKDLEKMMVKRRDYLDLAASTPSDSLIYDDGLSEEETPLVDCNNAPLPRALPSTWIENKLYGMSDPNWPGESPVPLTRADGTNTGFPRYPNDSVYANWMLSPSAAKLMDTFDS

[4] = target: Myosin light chain kinase, smooth muscle (Homo sapiens, UniProt Q15746)
Chain of Myosin light chain kinase, smooth muscle (Q15746 whole entry): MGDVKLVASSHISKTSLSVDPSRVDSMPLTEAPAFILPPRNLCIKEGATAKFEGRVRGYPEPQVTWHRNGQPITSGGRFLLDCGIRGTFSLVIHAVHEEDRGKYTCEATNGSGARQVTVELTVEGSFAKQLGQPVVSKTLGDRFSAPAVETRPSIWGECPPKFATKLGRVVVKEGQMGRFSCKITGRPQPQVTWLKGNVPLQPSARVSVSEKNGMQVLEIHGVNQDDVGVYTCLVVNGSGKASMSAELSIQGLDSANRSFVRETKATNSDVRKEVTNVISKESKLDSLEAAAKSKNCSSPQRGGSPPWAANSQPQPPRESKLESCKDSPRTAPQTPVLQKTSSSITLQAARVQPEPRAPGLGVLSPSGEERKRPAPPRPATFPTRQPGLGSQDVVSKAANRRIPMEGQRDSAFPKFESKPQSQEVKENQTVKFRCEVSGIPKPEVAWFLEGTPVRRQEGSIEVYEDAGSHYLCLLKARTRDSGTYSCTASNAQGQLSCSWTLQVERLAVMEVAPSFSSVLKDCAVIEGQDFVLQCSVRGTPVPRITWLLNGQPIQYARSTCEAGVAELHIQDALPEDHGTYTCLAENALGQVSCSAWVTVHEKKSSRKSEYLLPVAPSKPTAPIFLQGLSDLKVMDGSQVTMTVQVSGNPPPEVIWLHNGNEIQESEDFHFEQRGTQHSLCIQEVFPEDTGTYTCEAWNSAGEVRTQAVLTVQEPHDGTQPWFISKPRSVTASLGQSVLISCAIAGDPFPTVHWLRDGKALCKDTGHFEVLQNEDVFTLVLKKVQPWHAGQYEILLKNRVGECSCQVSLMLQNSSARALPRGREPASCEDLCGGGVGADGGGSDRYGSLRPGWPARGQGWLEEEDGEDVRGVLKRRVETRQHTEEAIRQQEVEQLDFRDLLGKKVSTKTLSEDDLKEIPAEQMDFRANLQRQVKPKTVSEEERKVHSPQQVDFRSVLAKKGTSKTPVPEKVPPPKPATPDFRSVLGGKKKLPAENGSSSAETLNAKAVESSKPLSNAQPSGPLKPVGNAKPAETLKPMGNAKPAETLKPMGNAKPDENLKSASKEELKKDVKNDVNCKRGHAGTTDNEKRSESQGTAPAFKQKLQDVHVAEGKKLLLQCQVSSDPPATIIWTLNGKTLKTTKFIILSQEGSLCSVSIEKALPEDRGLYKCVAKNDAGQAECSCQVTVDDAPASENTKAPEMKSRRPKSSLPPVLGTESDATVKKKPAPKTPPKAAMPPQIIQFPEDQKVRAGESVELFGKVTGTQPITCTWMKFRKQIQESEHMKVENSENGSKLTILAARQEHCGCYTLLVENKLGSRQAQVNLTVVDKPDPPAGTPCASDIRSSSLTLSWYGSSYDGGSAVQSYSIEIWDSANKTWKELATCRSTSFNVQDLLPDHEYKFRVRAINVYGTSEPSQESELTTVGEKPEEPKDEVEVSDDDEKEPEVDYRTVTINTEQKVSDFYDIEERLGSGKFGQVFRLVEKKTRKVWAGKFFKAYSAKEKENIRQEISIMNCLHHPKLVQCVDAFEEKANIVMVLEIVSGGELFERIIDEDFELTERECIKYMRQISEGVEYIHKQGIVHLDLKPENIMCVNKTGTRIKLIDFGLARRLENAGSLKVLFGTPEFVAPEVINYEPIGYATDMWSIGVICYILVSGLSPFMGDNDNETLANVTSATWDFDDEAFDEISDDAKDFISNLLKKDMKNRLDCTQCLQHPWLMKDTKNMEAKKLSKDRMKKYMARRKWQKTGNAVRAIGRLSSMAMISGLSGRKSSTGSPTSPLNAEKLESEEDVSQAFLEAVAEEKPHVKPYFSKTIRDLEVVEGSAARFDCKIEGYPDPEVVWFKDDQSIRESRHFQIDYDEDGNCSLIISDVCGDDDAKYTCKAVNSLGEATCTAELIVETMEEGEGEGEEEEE

[5] = target: Mitogen-activated protein kinase kinase kinase kinase 1 (Homo sapiens, UniProt Q92918)
[6] = target: MAP kinase-activated protein kinase 2 (Homo sapiens, UniProt P49137)
Chain of MAP kinase-activated protein kinase 2 (P49137 whole entry): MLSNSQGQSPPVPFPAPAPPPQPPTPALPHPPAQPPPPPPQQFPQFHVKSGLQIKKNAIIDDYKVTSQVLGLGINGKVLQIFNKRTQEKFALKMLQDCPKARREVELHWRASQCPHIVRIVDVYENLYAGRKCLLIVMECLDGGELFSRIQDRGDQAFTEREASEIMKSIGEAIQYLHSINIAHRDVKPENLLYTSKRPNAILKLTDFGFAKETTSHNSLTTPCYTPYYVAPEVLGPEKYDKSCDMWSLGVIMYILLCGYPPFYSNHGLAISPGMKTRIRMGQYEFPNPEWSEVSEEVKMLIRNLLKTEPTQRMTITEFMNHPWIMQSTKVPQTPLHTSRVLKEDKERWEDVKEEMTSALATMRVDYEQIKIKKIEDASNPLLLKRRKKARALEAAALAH

[7] = target: T2, General transcription and DNA repair factor IIH helicase subunit XPD (Homo sapiens, UniProt P18074); settings: read-out: Kd apparent; k-562, colo 205, sk-n-be(2) and mv-4-11
T2 sequence (P18074 whole entry): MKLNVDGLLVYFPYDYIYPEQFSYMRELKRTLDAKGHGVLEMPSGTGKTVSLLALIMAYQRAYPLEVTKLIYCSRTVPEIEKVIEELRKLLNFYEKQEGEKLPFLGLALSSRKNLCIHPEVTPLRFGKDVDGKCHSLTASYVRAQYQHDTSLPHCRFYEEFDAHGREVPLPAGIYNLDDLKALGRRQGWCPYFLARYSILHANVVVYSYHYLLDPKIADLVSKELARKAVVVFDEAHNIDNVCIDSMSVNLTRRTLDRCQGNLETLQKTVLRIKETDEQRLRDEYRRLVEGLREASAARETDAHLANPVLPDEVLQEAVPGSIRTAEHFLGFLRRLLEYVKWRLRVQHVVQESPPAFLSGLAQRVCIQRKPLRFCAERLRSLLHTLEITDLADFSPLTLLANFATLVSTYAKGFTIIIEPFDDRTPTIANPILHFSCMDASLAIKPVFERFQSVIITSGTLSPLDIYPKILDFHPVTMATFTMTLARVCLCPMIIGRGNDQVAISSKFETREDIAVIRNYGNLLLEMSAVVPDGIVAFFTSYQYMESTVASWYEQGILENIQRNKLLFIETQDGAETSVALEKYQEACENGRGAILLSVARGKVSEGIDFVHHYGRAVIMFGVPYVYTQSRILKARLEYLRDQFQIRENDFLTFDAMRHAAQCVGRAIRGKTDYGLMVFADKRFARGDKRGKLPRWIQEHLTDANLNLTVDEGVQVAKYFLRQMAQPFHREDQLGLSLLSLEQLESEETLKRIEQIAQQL

LIM domain kinase 2 = LIM domain kinase 2 (Homo sapiens, UniProt P53671)
Chain of LIM domain kinase 2 (P53671 whole entry, the tested form may be a part): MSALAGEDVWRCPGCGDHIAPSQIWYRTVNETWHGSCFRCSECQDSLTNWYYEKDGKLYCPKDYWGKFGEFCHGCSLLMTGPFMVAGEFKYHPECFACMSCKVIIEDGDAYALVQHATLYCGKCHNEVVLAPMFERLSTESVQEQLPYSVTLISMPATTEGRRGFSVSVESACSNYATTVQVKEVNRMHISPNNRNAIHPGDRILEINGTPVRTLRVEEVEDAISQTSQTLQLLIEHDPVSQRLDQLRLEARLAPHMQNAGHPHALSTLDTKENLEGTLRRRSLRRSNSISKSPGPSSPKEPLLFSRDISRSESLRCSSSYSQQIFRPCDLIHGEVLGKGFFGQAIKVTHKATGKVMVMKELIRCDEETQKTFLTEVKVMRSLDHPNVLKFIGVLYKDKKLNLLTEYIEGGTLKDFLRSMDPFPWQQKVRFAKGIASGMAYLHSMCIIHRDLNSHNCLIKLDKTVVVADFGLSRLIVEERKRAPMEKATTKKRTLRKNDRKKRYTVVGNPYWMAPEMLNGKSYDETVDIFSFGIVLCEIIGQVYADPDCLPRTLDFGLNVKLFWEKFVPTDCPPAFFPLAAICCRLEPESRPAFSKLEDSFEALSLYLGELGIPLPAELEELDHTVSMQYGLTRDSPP

[8] = target: Cyclin-dependent kinase 17 (Homo sapiens, UniProt Q00537)
[9] = target: T3, Serine/threonine-protein kinase 3 (Homo sapiens, UniProt Q13188)
T3 sequence (Q13188 whole entry): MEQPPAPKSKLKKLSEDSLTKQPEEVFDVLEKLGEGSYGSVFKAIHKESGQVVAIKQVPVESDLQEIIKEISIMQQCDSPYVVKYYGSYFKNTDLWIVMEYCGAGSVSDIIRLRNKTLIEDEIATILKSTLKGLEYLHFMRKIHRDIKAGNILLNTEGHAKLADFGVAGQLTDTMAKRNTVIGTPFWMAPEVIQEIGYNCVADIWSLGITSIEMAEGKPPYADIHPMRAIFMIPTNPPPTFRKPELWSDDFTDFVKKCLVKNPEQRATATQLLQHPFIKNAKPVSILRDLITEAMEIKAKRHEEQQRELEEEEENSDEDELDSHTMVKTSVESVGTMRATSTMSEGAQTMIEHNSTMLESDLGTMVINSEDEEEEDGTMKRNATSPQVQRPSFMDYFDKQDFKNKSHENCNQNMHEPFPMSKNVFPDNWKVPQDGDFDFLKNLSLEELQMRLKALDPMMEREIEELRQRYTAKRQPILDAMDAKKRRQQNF

[10] = target: ATP-dependent RNA helicase DDX3X (Homo sapiens, UniProt O00571)
Chain of ATP-dependent RNA helicase DDX3X (O00571 whole entry): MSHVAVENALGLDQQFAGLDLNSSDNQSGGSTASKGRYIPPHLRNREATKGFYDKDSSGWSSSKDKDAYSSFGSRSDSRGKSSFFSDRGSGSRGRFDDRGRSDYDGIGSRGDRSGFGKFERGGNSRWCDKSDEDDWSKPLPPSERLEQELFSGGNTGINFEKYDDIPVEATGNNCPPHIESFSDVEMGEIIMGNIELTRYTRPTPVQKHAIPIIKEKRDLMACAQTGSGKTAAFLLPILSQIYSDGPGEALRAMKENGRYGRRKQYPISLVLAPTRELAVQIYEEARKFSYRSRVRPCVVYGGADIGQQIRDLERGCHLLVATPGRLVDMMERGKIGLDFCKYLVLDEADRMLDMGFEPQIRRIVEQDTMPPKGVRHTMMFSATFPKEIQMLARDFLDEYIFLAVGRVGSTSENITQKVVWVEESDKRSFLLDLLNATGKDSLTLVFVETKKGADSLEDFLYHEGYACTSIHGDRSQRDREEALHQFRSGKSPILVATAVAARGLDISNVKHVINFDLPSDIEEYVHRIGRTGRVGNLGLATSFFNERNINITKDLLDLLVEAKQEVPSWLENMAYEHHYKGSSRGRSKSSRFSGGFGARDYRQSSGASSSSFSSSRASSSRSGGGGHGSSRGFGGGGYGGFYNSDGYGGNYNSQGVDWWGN
Note: in the data inactive means no Kd found up to 30 µM.

Kd [1]	Kd [2]	Kd [3]	Kd [4]	Kd [5]	Kd [6]	Kd [7]	Kd (LIM domain kinase 2)	Kd [8]	Kd [9]	Kd [10]	SMILES
> 30 µM (inactive)	> 30 µM (inactive)	> 30 µM (inactive)	> 30 µM (inactive)	> 30 µM (inactive)	> 30 µM (inactive)	> 30 µM (inactive)	> 30 µM (inactive)	> 30 µM (inactive)	> 30 µM (inactive)	> 30 µM (inactive)	COc1ccc(S(=O)(=O)N(C(C)=O)c2ccccc2/C=C/c2cc[n+]([O-])cc2)cc1 [HMN-214]
> 30 µM (inactive)	> 30 µM (inactive)	> 30 µM (inactive)	> 30 µM (inactive)	> 30 µM (inactive)	> 30 µM (inactive)	> 30 µM (inactive)	> 30 µM (inactive)	> 30 µM (inactive)	> 30 µM (inactive)	> 30 µM (inactive)	NC1(c2ccc(-c3nc4ccn5c(=O)[nH]nc5c4cc3-c3ccccc3)cc2)CCC1 [MK-2206]
> 30 µM (inactive)	> 30 µM (inactive)	> 30 µM (inactive)	> 30 µM (inactive)	> 30 µM (inactive)	> 30 µM (inactive)	> 30 µM (inactive)	> 30 µM (inactive)	> 30 µM (inactive)	> 30 µM (inactive)	> 30 µM (inactive)	Cn1cc(-c2cnc3ccc4ccc(CS(=O)(=O)NCc5ccccn5)cc4c(=O)c3c2)cn1 [MK-8033]
0.157 µM (active)	> 30 µM (inactive)	0.728 µM (active)	> 30 µM (inactive)	2.3 µM (active)	> 30 µM (inactive)	0.002 µM (active)	> 30 µM (inactive)	0.014 µM (active)	2.2 µM (active)	> 30 µM (inactive)	Cc1nc(Nc2n[nH]c3c2CN(C(=O)N[C@H](CN(C)C)c2ccccc2)C3(C)C)c2sccc2n1 [PF-03758309]

The next lines start with the compound.

SMILES	Kd [1]	Kd [2]	Kd [3]	Kd [4]	Kd [5]	Kd [6]	Kd [7]	Kd (LIM domain kinase 2)	Kd [8]	Kd [9]	Kd [10]
CCS(=O)(=O)N1CCN(c2ccc(Nc3ncc(C(N)=O)c(NC4CC4)n3)cc2)CC1 [Cerdulatinib Hydrochloride]	0.261 µM (active)	> 30 µM (inactive)	1.23 µM (active)	> 30 µM (inactive)	> 30 µM (inactive)	> 30 µM (inactive)	> 30 µM (inactive)	> 30 µM (inactive)	> 30 µM (inactive)	0.062 µM (active)	> 30 µM (inactive)
Cc1nc2cc(-n3ncc(C(=O)c4cc5ccccc5[nH]4)c3N)ccc2[nH]1 [FGFR INHIBITOR DEBIO 1347]	> 30 µM (inactive)	> 30 µM (inactive)	0.783 µM (active)	> 30 µM (inactive)	> 30 µM (inactive)	0.018 µM	> 30 µM (inactive)	> 30 µM (inactive)	> 30 µM (inactive)	> 30 µM (inactive)	> 30 µM (inactive)
Cc1cccc(-c2nn3c(c2-c2ccnc4ccc(C(N)=O)cc24)CCC3)n1 [GALUNISERTIB]	> 30 µM (inactive)	> 30 µM (inactive)	> 30 µM (inactive)	> 30 µM (inactive)	> 30 µM (inactive)	> 30 µM (inactive)	> 30 µM (inactive)	> 30 µM (inactive)	> 30 µM (inactive)	> 30 µM (inactive)	> 30 µM (inactive)
FC(F)(F)c1ccc(/C=C/c2nc(COc3ccc(CCCCn4ccnn4)cc3)co2)cc1 [MUBRITINIB]	> 30 µM (inactive)	> 30 µM (inactive)	> 30 µM (inactive)	> 30 µM (inactive)	> 30 µM (inactive)	> 30 µM (inactive)	> 30 µM (inactive)	> 30 µM (inactive)	> 30 µM (inactive)	> 30 µM (inactive)	> 30 µM (inactive)
COc1ncc(-c2ccc3nccc(-c4ccnnc4)c3c2)cc1NS(=O)(=O)c1ccc(F)cc1F [OMIPALISIB]	> 30 µM (inactive)	> 30 µM (inactive)	> 30 µM (inactive)	> 30 µM (inactive)	> 30 µM (inactive)	> 30 µM (inactive)	> 30 µM (inactive)	> 30 µM (inactive)	> 30 µM (inactive)	> 30 µM (inactive)	> 30 µM (inactive)
CCOc1cc2ncc(C#N)c(Nc3ccc(F)c(Cl)c3)c2cc1NC(=O)/C=C/CN(C)C [PELITINIB]	> 30 µM (inactive)	> 30 µM (inactive)	> 30 µM (inactive)	> 30 µM (inactive)	1.1 µM (active)	> 30 µM (inactive)	> 30 µM (inactive)	> 30 µM (inactive)	> 30 µM (inactive)	> 30 µM (inactive)	> 30 µM (inactive)
CCCCCCCCCCCCCCCCCCOP(=O)([O-])OC1CC[N+](C)(C)CC1 [PERIFOSINE]	> 30 µM (inactive)	> 30 µM (inactive)	> 30 µM (inactive)	> 30 µM (inactive)	> 30 µM (inactive)	> 30 µM (inactive)	> 30 µM (inactive)	> 30 µM (inactive)	> 30 µM (inactive)	> 30 µM (inactive)	> 30 µM (inactive)
Cc1cnc(NC(=O)Nc2cc(Br)c(C)cc2OC[C@@H]2CNCCO2)cn1 [RABUSERTIB]	> 30 µM (inactive)	> 30 µM (inactive)	> 30 µM (inactive)	> 30 µM (inactive)	> 30 µM (inactive)	> 30 µM (inactive)	> 30 µM (inactive)	> 30 µM (inactive)	> 30 µM (inactive)	> 30 µM (inactive)	> 30 µM (inactive)
